In experiment [1] the test system is Kyn levels in BxPC3 cells (kynurenine generated by IDO1). The experiment is described as follows: Cellular Kyn assay (automated Kyn screening assay). It counts as cell-based. As to conditions: Homo sapiens, BXPC-3, 48 h, IFN-γ, L-Trp and compounds 48 h, mean ± SD, read-out: IC50 (Kyn assay), reduction of kynurenine levels.
Experiment [2] addresses T1, recombinant human IDO1 (Homo sapiens, UniProt P14902).
T1 construct: The GST-tag of IDO1 was removed to obtain untagged full-length IDO1l using PreScission protease; GST (N, cleaved yes); made in house; own inference
The experiment can be described thus: IDO1 enzymatic assay in vitro. It counts as biochemical. As to conditions: pre-incubation 37 °C 45 min; for inhibition at 14 µM: mean ± SD; for IC50: determined if inhibition at 14 µM higher than 50%.

The target in experiment [3] is T2, recombinant full-length human IDO1 (Homo sapiens, UniProt P14902).
T2 construct: The GST-tag of IDO1 was removed to obtain untagged full-length IDO1l using PreScission protease; GST (N, cleaved yes); made in house; own inference
The experiment can be described thus: Isothermal titration calorimetry (ITC). The settings on record: 25 °C. It counts as binding. As to the method: (§1) Incubation at 37 °C for 3 h. Representative data for n = 3. c) Time‐course of heme displacement from IDO1 detected by the absorbance at the Soret peak (404 nm) as a function of time. […] All curves were fit using a one‐site model with N = 1 and defined IDO1 concentration. Left plots show baseline corrected data, while right plots show integrated binding isotherms versus iDegs/IDO1 ratio. IDO1 protein (125 µM) was titrated into the stirred sample cell containing iDegs (25 µM, except for iDeg‐8 at 50 µM). Representative data for n = 3, except for iDeg‐9 (n = 2). g)–i) In vivo activity of iDeg‐6. NSG immunodeficient mice were injected with SKOV‐3 cells. Mice were treated with 18 intraperitoneal injections of iDeg‐6 (30 mg kg^−1) or vehicle. The pharmacological treatment was twice daily. Tumor volume was determined weekly by digital caliper. g) SKOV‐3 tumor growth curves in iDeg‐6‐treated mice (n = 12, green lines) or vehicle‐treated mice (n = 13, gray lines). Statistical analysis was performed by two‐way ANOVA: ****p < 0.001. h) Body weight changes during treatment window (mean values ± range). i) Survival data are shown by Kaplan‐Meier survival analysis. Mantel–Haenszel statistical analysis: p < 0.0001).
ITC was performed using the MicroCal PEAQ-ITC system (Malvern) at 25 °C. Recombinant human full-length IDO1 (rhIDO1) was buffer-exchanged into 100 mM phosphate buffer (50 mM KH₂PO₄ and 50 mM K₂HPO₄, pH 6.57) with 1 mM TECP using a 10 K Amicon® Ultra centrifugal filter (Millipore). The buffer exchange was repeated ten times to ensure complete removal of interfering components. The final protein sample was diluted in the same phosphate buffer prior to titration.125 μM protein in 100 mM phosphate buffer was loaded into the syringe, while 25 μM compound (except for iDeg-8, 50 μM) in 100 mM phosphate buffer was loaded to the cell. All samples were adjusted to 25 °C and degassed before loading. Titrations were performed at 25 °C with one injection of 0.4 µL, followed by 18 injections of 2 µL. Experiments were performed with three biological replicates except for iDeg-9 with two biological replicates. Data were analyzed using the MicroCal PEAQ-ITC Analysis software and were plotted using GraphPad Prism 9.0 (GraphPad, USA).
On the technique in general: ITC needs no label: the signal is the heat of the interaction.

Experiment [4] concerns the target IDO1 protein levels in BxPC3 cells (Homo sapiens, UniProt P14902). The experiment is described as follows: IDO1 immunoblotting (degradation). It counts as cell-based. Details: endogenous in cells; host or cells: BxPC3 (DSMZ), IFN-γ stimulated. The settings on record: for Max. degradation (%): 24 h incubation, mean ± SD; for Dmax at 0.1 µM: BXPC-3, @100 nM. A general note: Immunoblotting shows a protein as a band on a membrane.

For experiment [5], the target named is T3, heme-bound IDO1 (holo-IDO1) (Homo sapiens, UniProt P14902).
T3 construct: The GST-tag of IDO1 was removed to obtain untagged full-length IDO1l using PreScission protease; GST (N, cleaved yes); made in house; own inference
The experiment is described as follows: UV/Vis detection of heme-bound IDO1 (heme displacement). It counts as binding. As to conditions: 50 µM. The method, then: as §1
Representative data of n=3 biological replicates. c, IDO1 was incubated with compounds (50 µM) or DMSO (control). UV/VIS spectra were acquired at five time points to monitor heme loss over time. Data are representative of two replicates.
The test compounds or DMSO (vehicle control) were incubated with recombinant full-length human IDO1 (rhIDO1; 10 µM) in 50 mM potassium phosphate buffer (pH 6.5) for 3 h at 37 °C. Following incubation, samples were centrifuged at 5,000 × g for 10 minutes. UV/Vis absorption spectra were then recorded from 250 nm to 650 nm in 1 nm increments using UV-transparent microplates (UV-STAR®, Greiner Bio-One, Austria) on a Spark® multimode microplate reader (Tecan, Austria). Absorbance values were analyzed at 404 nm (A404), and were plotted using GraphPad Prism version 9.0 (GraphPad Software, USA).

Each structure is given as a SMILES string.

The source of these data is PMC12811658, “Design, Synthesis, and Structural Evolution of Pseudo‐Natural Product IDO1 Inhibitors and Degraders” (Angewandte Chemie (International Ed. in English), 2025).

In general, IC50 refers to the concentration that inhibits the measured activity by half. For orientation: inhibition means the share of the control response that was lost under treatment. For orientation: Kd means a measure of binding affinity in units of concentration. What is called Dmax is the largest share of the target that was removed. Read a low Dmax as shallow degradation.

Chain of IDO1 protein levels in BxPC3 cells (P14902 whole entry): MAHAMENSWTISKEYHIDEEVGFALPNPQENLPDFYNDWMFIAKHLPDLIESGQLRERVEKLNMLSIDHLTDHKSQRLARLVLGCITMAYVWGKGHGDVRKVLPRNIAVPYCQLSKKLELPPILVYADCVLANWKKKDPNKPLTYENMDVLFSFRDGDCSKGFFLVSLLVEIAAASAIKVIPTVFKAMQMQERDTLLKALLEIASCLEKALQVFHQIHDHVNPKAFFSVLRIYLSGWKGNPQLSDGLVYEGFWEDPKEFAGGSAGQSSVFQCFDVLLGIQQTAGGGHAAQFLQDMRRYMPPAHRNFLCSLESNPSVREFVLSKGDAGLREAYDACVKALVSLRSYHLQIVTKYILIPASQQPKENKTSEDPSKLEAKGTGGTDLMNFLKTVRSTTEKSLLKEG
T2 sequence (P14902 whole entry): as above
T1 sequence (P14902 whole entry): as above
T3 sequence (P14902 whole entry): as above

On to `C#Cc1ccc(NC(=O)OC[C@]23CN(S(=O)(=O)c4ccc(C(C)(C)C)cc4CC)C[C@H]2C[C@H]2C[C@@H]3C2(C)C)cc1` [99 (iDeg-8), ((3aS,4R,6R,7aS)-2-((4-(tert-butyl)-2-ethylphenyl)sulfonyl)-5,5-dimethyloctahydro-3aH-4,6-methanoisoindol-3a-yl)methyl (4-ethynylphenyl)carbamate], for which, in experiment [1], the IC50 was 9.7 ± 2 nM. In experiment [2], the inhibition at 14 µM stood at 61 ± 1% and the IC50 is 4 ± 3.3 µM. Further, in experiment [3], the “-TΔS (ITC)” value turned out to be 3.5 kcal/mol, the “ΔG (ITC)” value is -8.2 kcal/mol and the “ΔH (ITC)” value is listed as -11.8 ± 0.7 kcal/mol. For the same compound, the Kd in experiment [3] (one-site model) stood at 940 nM. Moreover, the “Max. degradation (%)” value in experiment [4] (10 nM) is 66 ± 4 (3) %. For the same compound, the “Max. degradation (%)” value in experiment [4] (100 nM) is on record as 75 ± 7 (3) %. For the same compound, in experiment [4] (BxPC3 cells), the Dmax at 0.1 µM was found to be 75%. The DC50 in experiment [4] (BxPC3 cells, ND: not detected, read-out: DC50 (half-maximal degradation concentration)) stood at 3 nM.

On to `C#Cc1ccc(NC(=O)OC[C@]23CN(S(=O)(=O)c4ccc(C(C)(C)C(=O)O)cc4)C[C@H]2C[C@H]2C[C@@H]3C2(C)C)cc1` [101 (iDeg-7), 2-(4-(((3aS,4R,6R,7aS)-3a-((((4-ethynylphenyl)carbamoyl)oxy)methyl)-5,5-dimethyloctahydro-2H-4,6-methanoisoindol-2-yl)sulfonyl)phenyl)-2-methylpropanoic acid], for which, in experiment [1], the IC50 came to 21 ± 6 nM. Moreover, in experiment [2], the inhibition at 14 µM is 75 ± 4% and the IC50 is 0.31 ± 0.06 µM. The “heme displacement from holo-IDO1 (in words)” value in experiment [5] (37 °C, 3 h, Soret band 404 nm) is given as “most efficient heme displacement”. For the same compound, the “time course of heme displacement (in words)” value in experiment [5] (absorbance at 404 nm over time, compared to iDeg-6 and -8) is on record as “faster”. Also, in experiment [3], the “-TΔS (ITC)” value worked out at 13.2 kcal/mol, the Kd was 122 nM, the “ΔG (ITC)” value is recorded as -9.4 kcal/mol and the “ΔH (ITC)” value is listed as -22.6 ± 0.4 kcal/mol. Further, the Kd in experiment [3] (one-site model) stood at 120 ± 20 nM. Also, the “Max. degradation (%)” value in experiment [4] (10 nM) was 36 ± 10 (5) %. Also, the “Max. degradation (%)” value in experiment [4] (100 nM) is 54 ± 8 (5) %. In addition, the “IDO1 protein level by immunoblotting (in words)” value in experiment [4] (BxPC3 cells, IFN-γ 24 h, washout, compounds 24 h) is reported as “only moderately reduced the IDO1 protein level”.

`CC(C)(CC(=O)O)c1ccc(S(=O)(=O)N2C[C@H]3C[C@H]4C[C@H](C4(C)C)[C@@]3(COC(=O)Nc3ccc(I)cc3)C2)cc1` [compound 91, 3-(4-(((3aS,4R,6R,7aS)-3a-((((4-iodophenyl)carbamoyl)oxy)methyl)-5,5-dimethyloctahydro-2H-4,6-methanoisoindol-2-yl)sulfonyl)phenyl)-3-methylbutanoic acid]: the IC50 in experiment [1] turned out to be 32 ± 7 nM; in experiment [2] it was 1.9 ± 0.5 µM. For the same compound, the inhibition at 14 µM in experiment [2] was determined as 59 ± 2%. The “Max. degradation (%)” value is reported as 27 ± 5 (3) % in experiment [4] (10 nM) and 36 ± 2 (3) % in experiment [4] (100 nM). Further, in experiment [4] (BxPC3 cells), the Dmax at 0.1 µM lay in the range of 36 to 54%.

Turning to `COc1cc(C(C)(C)C(=O)O)ccc1S(=O)(=O)N1C[C@H]2C[C@H]3C[C@H](C3(C)C)[C@@]2(COC(=O)Nc2ccc(I)cc2)C1` [compound 95, 2-(4-(((3aS,4R,6R,7aS)-3a-((((4-iodophenyl)carbamoyl)oxy)methyl)-5,5-dimethyloctahydro-2H-4,6-methanoisoindol-2-yl)sulfonyl)-3-methoxyphenyl)-2-methylpropanoic acid], the IC50 in experiment [1] stood at 80 ± 22 nM; in experiment [2], 0.67 ± 0.1 µM. For the same compound, the inhibition at 14 µM in experiment [2] was 57 ± 3%. Besides, the “Max. degradation (%)” value in experiment [4] (10 nM) and in experiment [4] (100 nM) was “Inactive (5)” throughout.

For `CC(C)(C(=O)O)c1ccc(S(=O)(=O)N2C[C@H]3C[C@H]4C[C@H](C4(C)C)[C@@]3(COC(=O)Nc3ccc(I)cc3)C2)c(Cl)c1` [compound 96, 2-(3-chloro-4-(((3aS,4R,6R,7aS)-3a-((((4-iodophenyl)carbamoyl)oxy)methyl)-5,5-dimethyloctahydro-2H-4,6-methanoisoindol-2-yl)sulfonyl)phenyl)-2-methylpropanoic acid], the IC50 amounted to 14 ± 3 nM in experiment [1] and 0.19 ± 0.1 µM in experiment [2]. The inhibition at 14 µM in experiment [2] came out at 62 ± 1%. The figures for the “Max. degradation (%)” value in experiment [4] (10 nM) and in experiment [4] (100 nM) were 15 ± 2 (3) % and 20 ± 12 (3) %, respectively.

As to `Cc1cc(C(C)(C)C(=O)O)ccc1S(=O)(=O)N1C[C@H]2C[C@H]3C[C@H](C3(C)C)[C@@]2(COC(=O)Nc2ccc(I)cc2)C1` [compound 97, 2-(4-(((3aS,4R,6R,7aS)-3a-((((4-iodophenyl)carbamoyl)oxy)methyl)-5,5-dimethyloctahydro-2H-4,6-methanoisoindol-2-yl)sulfonyl)-3-methylphenyl)-2-methylpropanoic acid], the results for the IC50 in experiment [1] and in experiment [2] were 5 ± 1 nM and 0.11 ± 0.02 µM, respectively. The inhibition at 14 µM in experiment [2] was determined as 65 ± 4%. Further, the entries for the “Max. degradation (%)” value in experiment [4] (10 nM) and in experiment [4] (100 nM) were 11 ± 24 (3) % and 18 ± 19 (3) %, respectively.

Turning to `C#Cc1ccc(NC(=O)OC[C@]23CN(S(=O)(=O)c4ccc(C(C)(C)C)cc4C4CC4)C[C@H]2C[C@H]2C[C@@H]3C2(C)C)cc1` [compound 100, ((3aS,4R,6R,7aS)-2-((4-(tert-butyl)-2-cyclopropylphenyl)sulfonyl)-5,5-dimethyloctahydro-3aH-4,6-methanoisoindol-3a-yl)methyl (4-ethynylphenyl)carbamate], the IC50 is 10 ± 4 nM in experiment [1] and over 14 µM in experiment [2]. Further, the inhibition at 14 µM in experiment [2] was determined as 39 ± 7%. For the same compound, the “Max. degradation (%)” value is reported as 61 ± 2 (3) % in experiment [4] (10 nM) and 71 ± 11 (3) % in experiment [4] (100 nM).
